Measured values published in PubChem BioAssay AID1259407 (Chemical Carcinogenesis Research Information System (CCRIS), 2018).
Active and inactive are the calls of the source. No rule for the calls is given here.

Test system: CCRIS mutagenicity, Ames/micronucleus/aberration tests
Test: CCRIS mutagenicity studies
[1] = Test System: AMES SALMONELLA TYPHIMURIUM, Strain/Indicator: TA100, Metabolic Activation: RAT, LIVER, S-9, Method: PREINCUBATION
[2] = Test System: AMES SALMONELLA TYPHIMURIUM, Strain/Indicator: TA98, Metabolic Activation: NONE, Method: PREINCUBATION
[3] = Test System: AMES SALMONELLA TYPHIMURIUM, Strain/Indicator: TA98, Metabolic Activation: RAT, LIVER, S-9, AROCLOR 1254, Method: PREINCUBATION
[4] = Test System: AMES SALMONELLA TYPHIMURIUM, Strain/Indicator: TA100, Metabolic Activation: NONE, Method: PREINCUBATION
[5] = Test System: AMES SALMONELLA TYPHIMURIUM, Strain/Indicator: TA100, Metabolic Activation: RAT, LIVER, S-9, AROCLOR 1254, Method: PREINCUBATION
[6] = Test System: AMES SALMONELLA TYPHIMURIUM, Strain/Indicator: TA102, Metabolic Activation: NONE, Method: PREINCUBATION
[7] = Test System: AMES SALMONELLA TYPHIMURIUM, Strain/Indicator: TA102, Metabolic Activation: RAT, LIVER, S-9, AROCLOR 1254, Method: PREINCUBATION

In the case of `CCN(C)N=O`, the mutagenic call (Test System: AMES SALMONELLA TYPHIMURIUM, Strain/Indicator: TA100, Metabolic Activation: HAMSTER, LIVER, S-9, Method: PREINCUBATION) is reported as “active; positive”, the mutagenic call (Test System: AMES SALMONELLA TYPHIMURIUM, Strain/Indicator: TA100, Metabolic Activation: HUMAN, LIVER, S-9, Method: PREINCUBATION) is reported as “inactive; negative” and the mutagenic call (Test System: AMES SALMONELLA TYPHIMURIUM, Strain/Indicator: TA100, Metabolic Activation: PIG, LIVER, S-9, Method: PREINCUBATION) is reported as “inactive; negative”. For the same molecule, the mutagenic call [1] was “inactive; negative”.
In the case of `Cn1cccc1`, the mutagenic call [2] is reported as “inactive; negative”, the mutagenic call [3] is reported as “inactive; negative” and the mutagenic call [4] is reported as “inactive; negative”. The mutagenic call [5] was “inactive; negative”, the mutagenic call [6] was “inactive; negative” and the mutagenic call [7] was “inactive; negative”.
In the case of `CCCCCCCCCCCCCCCCCC(=O)NCCCC[C@@H](NC(=O)CC[C@@H](NC(=O)[C@H](C)NC(=O)[C@@H](C)O[C@H]1[C@H](O)[C@@H](CO)OC(O)[C@@H]1NC(C)=O)C(N)=O)C(=O)O` (stereo partly drawn), the mutagenic call [2] is reported as “inactive; negative”, the mutagenic call (Test System: AMES SALMONELLA TYPHIMURIUM, Strain/Indicator: TA98, Metabolic Activation: RAT, LIVER, S-9, KC-500, Method: PREINCUBATION) is reported as “inactive; negative” and the mutagenic call [4] is reported as “inactive; negative”. For the same molecule, the mutagenic call (Test System: AMES SALMONELLA TYPHIMURIUM, Strain/Indicator: TA100, Metabolic Activation: RAT, LIVER, S-9, KC-500, Method: PREINCUBATION) was “inactive; negative”, the mutagenic call (Test System: AMES SALMONELLA TYPHIMURIUM, Strain/Indicator: TA1535, Metabolic Activation: NONE, Method: PREINCUBATION) was “inactive; negative” and the mutagenic call (Test System: AMES SALMONELLA TYPHIMURIUM, Strain/Indicator: TA1535, Metabolic Activation: RAT, LIVER, S-9, KC-500, Method: PREINCUBATION) was “inactive; negative”. For the same molecule, the mutagenic call (Test System: AMES SALMONELLA TYPHIMURIUM, Strain/Indicator: TA1537, Metabolic Activation: NONE, Method: PREINCUBATION) was “inactive; negative”, the mutagenic call (Test System: AMES SALMONELLA TYPHIMURIUM, Strain/Indicator: TA1537, Metabolic Activation: RAT, LIVER, S-9, KC-500, Method: PREINCUBATION) was “inactive; negative” and the mutagenic call (Test System: AMES SALMONELLA TYPHIMURIUM, Strain/Indicator: TA1538, Metabolic Activation: NONE, Method: PREINCUBATION) was “inactive; negative”. For the same molecule, the mutagenic call (Test System: AMES SALMONELLA TYPHIMURIUM, Strain/Indicator: TA1538, Metabolic Activation: RAT, LIVER, S-9, KC-500, Method: PREINCUBATION) was “inactive; negative”, the mutagenic call (Test System: E. COLI, Strain/Indicator: WP2 UVRA, Metabolic Activation: NONE, Method: PREINCUBATION) was “inactive; negative” and the mutagenic call (Test System: E. COLI, Strain/Indicator: WP2 UVRA, Metabolic Activation: RAT, LIVER, S-9, KC-500, Method: PREINCUBATION) was “inactive; negative”.
`CCC=O` was tested, and the mutagenic call [2] was “inactive; negative”, the mutagenic call [3] was “inactive; negative” and the mutagenic call [4] was “inactive; negative”. The mutagenic call (Test System: AMES SALMONELLA TYPHIMURIUM, Strain/Indicator: TA100, Metabolic Activation: RAT LIVER S-9, AROCLOR 1254, Method: PREINCUBATION) was “inactive; negative”, the mutagenic call [5] was “inactive; negative” and the mutagenic call [6] was “inactive; negative”. For the same molecule, the mutagenic call (Test System: AMES SALMONELLA TYPHIMURIUM, Strain/Indicator: TA102, Metabolic Activation: RAT LIVER S-9, AROCLOR 1254, Method: PREINCUBATION) was “inactive; negative”, the mutagenic call [7] was “inactive; negative” and the mutagenic call (Test System: AMES SALMONELLA TYPHIMURIUM, Strain/Indicator: TA104, Metabolic Activation: NONE, Method: PREINCUBATION) was “inactive; negative”. For the same molecule, the mutagenic call (Test System: AMES SALMONELLA TYPHIMURIUM, Strain/Indicator: TA104, Metabolic Activation: RAT LIVER S-9, AROCLOR 1254, Method: PREINCUBATION) was “inactive; negative”, the mutagenic call (Test System: CHINESE HAMSTER V-79, Strain/Indicator: V-79/6-THIOGUANINE (HGPRT), Metabolic Activation: NONE, Method: REPLATING) was “active; positive” and the mutagenic call (Test System: CHINESE HAMSTER V-79, Strain/Indicator: V-79/6-THIOGUANINE, Metabolic Activation: NONE) was “inactive; negative”. The mutagenic call (Test System: CHINESE HAMSTER V-79, Strain/Indicator: V-79/OUABAIN (NA/K), Metabolic Activation: NONE, Method: REPLATING) was “active; positive”, the mutagenic call (Test System: UDS HUMAN HEPATOCYTES, Strain/Indicator: THY INCORP, Metabolic Activation: NONE, Method: AUTORADIOGRAPHY) was “inactive; negative” and the mutagenic call (Test System: UDS RAT HEPATOCYTES, Strain/Indicator: THY INCORP, Metabolic Activation: NONE, Method: AUTORADIOGRAPHY) was “active; positive”.
`CCc1ccnc2ccccc12` was tested, and the mutagenic call [1] was “inactive; negative”.
